From paper PMC11195807, “Development of a multi-targeted chemotherapeutic approach based on G-quadruplex stabilisation and carbonic anhydrase inhibition” (Journal of Enzyme Inhibition and Medicinal Chemistry, 2024)
Several values for one entry are separate records, joined by “and”; a condition that tells them apart may be missing. Identical values can stand only once.

How the values were obtained:
F-c-Kit1-T GQ = experiment: FRET melting competition experiments; type: binding; settings: 2 molar equiv ligand; for ΔT1/2 F-c-Kit1-T + Hairpin (1:15): 15 molar equiv unlabelled Hairpin; for ΔT1/2 F-c-Kit1-T + Hairpin (1:50): 50 molar equiv unlabelled Hairpin; for ΔT1/2 F-c-Kit1-T: no competitor
Excerpt: FRET melting analysis was used to further estimate the GQ over duplex selectivity of the selected compounds[53]. The GQ-forming oligonucleotide c-Kit1 labelled with FAM and TAMRA (F-c-Kit1-T) was employed because, among the parallel GQs used in this study (c-Kit1 and c-Myc), it was the only one with a lower T1/2 than the hairpin DNA duplex competitor (Hairpin), thus allowing proper estimation of the GQ-stabilising properties of the ligands in the presence of a large excess of the unlabelled (non-fluorescent) competitor. […] The sulphonamide S-3,2 was also considered since the crystal structure of such MTDL in complex with Tel23 was successfully obtained. Results of these experiments (Figure S9, Supporting Information and Table 3) confirmed that these compounds are efficient GQ stabilisers.
Measurements were carried out on an FP-8300 spectrofluorometer equipped with a Peltier temperature controller system (PCT-818). The dual-labelled GQ-forming FAM-[d([…])]-TAMRA sequence (F-c-Kit1-T), supplied by biomers.net GmbH (Ulm, Germany), was used for the experiments without further purification. […] The experiments were carried out in sealed quartz cuvettes with a path length of 1 cm, by using 0.2 μM GQ-forming oligonucleotide without or with 0.4 μM of each compound, and the unlabelled competitor (Hairpin) at 0, 3, and 10 μM final concentrations. FRET melting experiments were performed in the range 15–90 °C, with 0.2 °C/min heating rate, by monitoring the emission of FAM at 520 nm (upon excitation at 492 nm). Both excitation and emission slits were set to 5 nm. The emission intensity of FAM was then normalised between 0 and 1. Fluorescence emission spectra were acquired before (at 15 °C) and after (at 90 °C) the melting assay, in the range 500–650 nm, with a 100 nm/s scan speed. Data analysis was performed using OriginPro 2021 software.

hCA IX = biological target: T1, hCA IX (Homo sapiens, UniProt Q16790); experiment: stopped-flow CO2 hydrase assay, hCA IX; type: biochemical; settings: for Selectivity index (SI) I/IX: hCA IX over hCA I; for Selectivity index (SI) II/IX: hCA IX over hCA II; for Ki: mean ± SEM of three assays
T1 construct: made in house
Excerpt: An Applied Photophysics stopped-flow instrument has been used for assaying the CA-catalysed CO2 hydration activity, as reported earlier. […] All hCA isoforms were recombinant proteins, being obtained in-house as reported earlier.

Tel23 = experiment: CD melting experiments, Tel23 GQ; type: binding, human; settings: for ΔT1/2 Tel23: 2 molar equiv compound, T1/2 of DNA alone 53.5 °C; for ΔΔT1/2 Tel23: ΔT1/2 of compound minus ΔT1/2 of berberine, 2 molar equiv
[1] = sulphonamides, inhibitor-enzyme incubation 15 min
[2] = coumarins, inhibitor-enzyme incubation 6 h

| Structure (SMILES) | Selectivity index (SI) I/IX (hCA IX) | Selectivity index (SI) II/IX (hCA IX) | Ki (hCA IX; [1]) | Ki (hCA IX; [2]) [nM] | ΔT1/2 F-c-Kit1-T + Hairpin (1:15) (F-c-Kit1-T GQ) [°C] | ΔT1/2 F-c-Kit1-T + Hairpin (1:50) (F-c-Kit1-T GQ) [°C] | ΔT1/2 F-c-Kit1-T (F-c-Kit1-T GQ) [°C] | ΔT1/2 Tel23 (Tel23) [°C] | ΔΔT1/2 Tel23 (Tel23) [°C] |
| --- | --- | --- | --- | --- | --- | --- | --- | --- | --- |
| COc1ccc2cc3[n+](cc2c1OCCn1cc(-c2ccc(S(N)(=O)=O)cc2)nn1)CCc1cc2c(cc1-3)OCO2 [Compound 26, 10-Methoxy-9–(2-(4–(4-sulfamoylphenyl)-1H-1,2,3-triazol-1-yl)ethoxy)-5,6-dihydro-[1,3]dioxolo[4,5-g]isoquinolino[3,2-a]isoquinolin-7-ium hexafluorophosphate] | 414.6 | 42.4 | 1.1 nM and 1.4 nM |  | 10.2 | 12.4 | 12.4 | 10.0 | 0.5 |
| COc1ccc2cc3[n+](cc2c1OCCCn1cc(COc2ccc(S(N)(=O)=O)cc2)nn1)CCc1cc2c(cc1-3)OCO2 [Compound 29, 10-Methoxy-9–(3-(4-((4-sulfamoylphenoxy)methyl)-1H-1,2,3-triazol-1-yl)propoxy)-5,6-dihydro-[1,3]dioxolo[4,5-g]isoquinolino[3,2-a]isoquinolin-7-ium hexafluorophosphate] | 1437 | 111.3 | 0.56 ± 0.03 nM |  | 12.8 | 13.2 | 13.2 | 8.0 | −1.5 |
| COc1ccc2cc3[n+](cc2c1OCCCCn1cc(-c2ccc(S(N)(=O)=O)cc2)nn1)CCc1cc2c(cc1-3)OCO2 [Compound 30, 10-Methoxy-9–(4–(4-(4-sulfamoylphenyl)-1H-1,2,3-triazol-1-yl)butoxy)-5,6-dihydro-[1,3]dioxolo[4,5-g]isoquinolino[3,2-a]isoquinolin-7-ium hexafluorophosphate] | 1209 | 112.4 | 0.49 ± 0.03 nM |  | 13.8 | 12.6 | 13.6 | 9.0 | −0.5 |
| COc1ccc2cc3[n+](cc2c1OCCCCCn1cc(-c2ccc(S(N)(=O)=O)cc2)nn1)CCc1cc2c(cc1-3)OCO2 [Compound 32, 10-Methoxy-9-((5–(4-(4-sulfamoylphenyl)-1H-1,2,3-triazol-1-yl)pentyl)oxy)-5,6-dihydro-[1,3]dioxolo[4,5-g]isoquinolino[3,2-a]isoquinolin-7-ium hexafluorophosphate] | 2390 | 65.8 | 0.24 ± 0.02 nM |  | 15.0 | 14.6 | 14.4 | 12.0 | 2.5 |
| COc1ccc2cc3[n+](cc2c1OCCCCn1cc(COc2ccc4ccc(=O)oc4c2)nn1)CCc1cc2c(cc1-3)OCO2 [Compound 37, 10-Methoxy-9–(4-(4-(((2-oxo-2H-chromen-7-yl)oxy)methyl)-1H-1,2,3-triazol-1-yl)butoxy)-5,6-dihydro-[1,3]dioxolo[4,5-g]isoquinolino[3,2-a]isoquinolin-7-ium hexafluorophosphate] | > 578.0 | > 578.0 |  | 17.3 ± 1.2 | 12.8 | 12.6 | 12.0 | 9.0 | −0.5 |

More lines, main results first:

| Selectivity index (SI) I/IX (hCA IX) | Selectivity index (SI) II/IX (hCA IX) | Ki (hCA IX; [1]) | Ki (hCA IX; [2]) [nM] | Structure (SMILES) | ΔT1/2 F-c-Kit1-T + Hairpin (1:15) (F-c-Kit1-T GQ) [°C] | ΔT1/2 F-c-Kit1-T + Hairpin (1:50) (F-c-Kit1-T GQ) [°C] | ΔT1/2 F-c-Kit1-T (F-c-Kit1-T GQ) [°C] | ΔT1/2 Tel23 (Tel23) [°C] | ΔΔT1/2 Tel23 (Tel23) [°C] |
| --- | --- | --- | --- | --- | --- | --- | --- | --- | --- |
|  |  |  | 66 ± 4.3 | COc1ccc2cc3[n+](cc2c1OCCCn1cc(COc2ccc4ccc(=O)oc4c2)nn1)CCc1cc2c(cc1-3)OCO2 [Compound 34, 10-Methoxy-9–(3-(4-(((2-oxo-2H-chromen-7-yl)oxy)methyl)-1H-1,2,3-triazol-1-yl)propoxy)-5,6-dihydro-[1,3]dioxolo[4,5-g]isoquinolino[3,2-a]isoquinolin-7-ium hexafluorophosphate] | 11.4 | 11.2 | 10.6 | 10.5 | 1.0 |
| > 205.8 | > 205.8 |  | 48.6 ± 2.6 | COc1ccc2cc3[n+](cc2c1OCCCCCn1cc(COc2ccc4ccc(=O)oc4c2)nn1)CCc1cc2c(cc1-3)OCO2 [Compound 39, 10-Methoxy-9-((5–(4-(((2-oxo-2H-chromen-7-yl)oxy)methyl)-1H-1,2,3-triazol-1-yl)pentyl)oxy)-5,6-dihydro-[1,3]dioxolo[4,5-g]isoquinolino[3,2-a]isoquinolin-7-ium hexafluorophosphate] | 13.2 | 14.0 | 14.6 | 8.5 | −1.0 |
